Experimental data as given in ChEMBL document CHEMBL2069187, “2-Amino-1,3,4-thiadiazole derivative (FABT) inhibits the extracellular signal-regulated kinase pathway and induces cell cycle arrest in human non-small lung carcinoma cells” (Bioorg Med Chem Lett, 2012).
Activity calls are given as the source filed them. The calls are words filed in the database; no cut-off is given here.

Legend:
[1] = target: T1, Mitogen-activated protein kinase; ERK1/ERK2 (Homo sapiens) (UniProt P27361+P28482); assay: Inhibition of ERK1/2 phosphorylation in human A549 cells at 25 uM by Western blot analysis; format: cell-based; conditions: TDE = time-dependent effect
Glioma cell = assay: Antiproliferative activity against human glioma cells; format: functional, cell-based
[2] = target: T1, Mitogen-activated protein kinase; ERK1/ERK2 (Homo sapiens); assay: Inhibition of ERK1/2 phosphorylation in human A549 cells assessed as peak effect time by Western blot analysis; format: cell-based
A549 [3] = assay: Inhibition of CREB phosphorylation in human A549 cells after 24 hrs by Western blot analysis; format: cell-based
A549 [4] = assay: Effect on total ERK1/2 levels in human A549 cells by Western blot analysis in presence of PMA; format: functional, cell-based
[5] = Antiproliferative activity against human astrocytes; format: cell-based; conditions: astrocyte
A549 [6] = assay: Effect on ERK1 gene expression in human A549 cells at 5 to 25 uM after 24 hrs by RT-PCR analysis; format: functional, cell-based
A549 [7] = assay: Cell cycle arrest in human A549 cells assessed as accumulation at G2/M phase at 10 uM after 24 hrs by acridine orange staining-based flow cytometry (Rvb =16.66 +/- 0.622 %); format: functional
[8] = target: T1, Mitogen-activated protein kinase; ERK1/ERK2 (Homo sapiens); assay: Inhibition of PMA-stimulated ERK1/2 phosphorylation in human A549 cells after 24 hrs by Western blot analysis; format: cell-based
A549 [9] = assay: Cell cycle arrest in human A549 cells assessed as accumulation at G0/G1 phase at 10 uM after 24 hrs by acridine orange staining-based flow cytometry (Rvb =44.85 +/- 0.866 %); format: functional
A549 [10] = assay: Effect on CREB1 gene expression in human A549 cells at 5 to 25 uM after 24 hrs by RT-PCR analysis; format: functional, cell-based
Homo sapiens [11] = species on record: Homo sapiens; assay: Antiproliferative activity against human neuroblastoma cells; format: functional, cell-based
A549 [12] = assay: Cell cycle arrest in human A549 cells assessed as accumulation at S phase at 50 uM after 24 hrs by acridine orange staining-based flow cytometry (Rvb =26.89 +/- 2.997 %); format: functional
A549 [13] = assay: Cell cycle arrest in human A549 cells assessed as accumulation at G0/G1 phase at 50 uM after 24 hrs by acridine orange staining-based flow cytometry (Rvb =44.85 +/- 0.866 %); format: functional
A549 [14] = assay: Effect on p21Waf1/Cip1 protein expression in human A549 cells at 1 to 100 uM after 24 hrs by Western blot analysis; format: functional, cell-based
A549 [15] = assay: Cell cycle arrest in human A549 cells after 24 hrs by acridine orange staining-based flow cytometry; format: functional
A549 [16] = assay: Cell cycle arrest in human A549 cells assessed as accumulation at S phase at 25 uM after 24 hrs by acridine orange staining-based flow cytometry (Rvb =26.89 +/- 2.997 %); format: functional
A549 [17] = assay: Effect on total ERK1/2 levels in human A549 cells by Western blot analysis; format: functional, cell-based
Homo sapiens [18] = species on record: Homo sapiens; assay: Antiproliferative activity against human lung adenocarcinoma cells; format: functional
[19] = target: T1, Mitogen-activated protein kinase; ERK1/ERK2 (Homo sapiens); assay: Inhibition of ERK1/2 phosphorylation in human A549 cells after 24 hrs by Western blot analysis; format: cell-based
Medulloblastoma cell = assay: Antiproliferative activity against human medulloblastoma cells; format: functional
Rhabdomyosarcoma cell = assay: Antiproliferative activity against human rhabdomyosarcoma cells; format: functional, cell-based
Hepatocyte = assay: Antiproliferative activity against human hepatocytes; format: cell-based
A549 [20] = assay: Effect on p27/Kip protein expression in human A549 cells at 1 to 100 uM after 24 hrs by Western blot analysis; format: functional, cell-based
[21] = Antiproliferative activity against human skin fibroblast
[22] = target: Dual specificity mitogen-activated protein kinase kinase; MEK1/2 (Homo sapiens) (UniProt P36507+Q02750); assay: Inhibition of MEK1/2 phosphorylation in human A549 cells after 24 hrs by Western blot analysis; format: cell-based
A549 [23] = assay: Cell cycle arrest in human A549 cells assessed as accumulation at G2/M phase at 25 uM after 24 hrs by acridine orange staining-based flow cytometry (Rvb =16.66 +/- 0.622 %); format: functional
A549 [24] = assay: Effect on cyclinD1 protein expression in human A549 cells at 1 to 100 uM after 24 hrs by Western blot analysis; format: functional, cell-based
A549 [25] = assay: Cell cycle arrest in human A549 cells assessed as accumulation at G0/G1 phase at 25 uM after 24 hrs by acridine orange staining-based flow cytometry (Rvb =44.85 +/- 0.866 %); format: functional
A549 [26] = assay: Inhibition of Rsk90 phosphorylation in human A549 cells after 24 hrs by Western blot analysis; format: cell-based
A549 [27] = assay: Cell cycle arrest in human A549 cells assessed as accumulation at S phase at 10 uM after 24 hrs by acridine orange staining-based flow cytometry (Rvb =26.89 +/- 2.997 %); format: functional
A549 [28] = assay: Cell cycle arrest in human A549 cells assessed as accumulation at G2/M phase at 50 uM after 24 hrs by acridine orange staining-based flow cytometry (Rvb =16.66 +/- 0.622 %); format: functional
Homo sapiens [29] = species on record: Homo sapiens; assay: Antiproliferative activity against human colon adenocarcinoma cells; format: functional

T1 sequence (P27361 whole entry, looked up): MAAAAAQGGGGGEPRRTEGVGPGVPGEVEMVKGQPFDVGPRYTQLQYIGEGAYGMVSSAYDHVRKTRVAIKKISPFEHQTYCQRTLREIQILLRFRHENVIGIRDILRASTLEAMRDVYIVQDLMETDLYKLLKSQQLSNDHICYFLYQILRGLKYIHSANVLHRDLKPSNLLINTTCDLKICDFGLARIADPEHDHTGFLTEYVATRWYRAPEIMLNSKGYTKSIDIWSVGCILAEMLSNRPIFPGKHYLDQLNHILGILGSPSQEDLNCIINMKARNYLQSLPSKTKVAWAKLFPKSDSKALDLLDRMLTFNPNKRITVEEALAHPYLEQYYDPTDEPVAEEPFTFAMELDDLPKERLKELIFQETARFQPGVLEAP
T1 sequence (P28482 whole entry, looked up): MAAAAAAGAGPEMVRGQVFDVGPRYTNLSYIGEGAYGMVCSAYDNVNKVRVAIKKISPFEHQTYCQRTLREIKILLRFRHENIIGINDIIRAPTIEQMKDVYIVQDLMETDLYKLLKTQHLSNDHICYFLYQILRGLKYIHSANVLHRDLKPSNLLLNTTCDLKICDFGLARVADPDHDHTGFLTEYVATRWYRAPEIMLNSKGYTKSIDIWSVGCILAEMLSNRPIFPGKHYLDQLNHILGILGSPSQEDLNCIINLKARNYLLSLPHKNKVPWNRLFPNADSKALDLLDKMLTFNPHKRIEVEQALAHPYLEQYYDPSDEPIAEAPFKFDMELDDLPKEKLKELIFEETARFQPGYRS
Dual specificity mitogen-activated protein kinase kinase; MEK1/2 (Homo sapiens), sequence (P36507 whole entry, looked up): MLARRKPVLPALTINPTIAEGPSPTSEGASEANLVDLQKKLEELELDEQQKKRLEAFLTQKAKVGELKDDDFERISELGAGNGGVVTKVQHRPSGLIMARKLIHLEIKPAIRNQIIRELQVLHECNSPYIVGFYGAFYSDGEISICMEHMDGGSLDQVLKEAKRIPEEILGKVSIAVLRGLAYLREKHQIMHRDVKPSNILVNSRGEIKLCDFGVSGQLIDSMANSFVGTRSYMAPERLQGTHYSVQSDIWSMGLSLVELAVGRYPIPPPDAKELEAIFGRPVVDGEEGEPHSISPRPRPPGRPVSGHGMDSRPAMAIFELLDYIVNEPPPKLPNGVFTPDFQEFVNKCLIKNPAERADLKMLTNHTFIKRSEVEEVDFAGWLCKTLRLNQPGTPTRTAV
Dual specificity mitogen-activated protein kinase kinase; MEK1/2 (Homo sapiens), sequence (Q02750 whole entry, looked up): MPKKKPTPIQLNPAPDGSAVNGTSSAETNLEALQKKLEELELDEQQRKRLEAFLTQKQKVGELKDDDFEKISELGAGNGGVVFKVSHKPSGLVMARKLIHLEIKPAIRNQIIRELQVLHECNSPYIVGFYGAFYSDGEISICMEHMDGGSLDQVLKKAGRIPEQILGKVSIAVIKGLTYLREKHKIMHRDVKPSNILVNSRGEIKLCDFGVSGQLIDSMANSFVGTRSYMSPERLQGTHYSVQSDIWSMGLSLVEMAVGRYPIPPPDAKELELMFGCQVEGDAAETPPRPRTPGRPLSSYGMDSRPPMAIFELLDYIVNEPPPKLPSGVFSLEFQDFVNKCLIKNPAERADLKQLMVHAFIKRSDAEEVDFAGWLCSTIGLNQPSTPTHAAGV

Question: Which inhibition [1] does the source give for `Oc1ccc(-c2nnc(Nc3ccc(F)cc3)s2)c(O)c1` here?
Answer: tde

Question: What about the Activity (Glioma cell) of the same compound?
Answer: Active

Question: And the TIME [2]?
Answer: 24 h

Question: And the inhibition (A549 [3])?
Answer: Active

Question: And the Activity (A549 [4])?
Answer: inactive

Question: What about the Activity [5] of the same compound?
Answer: Non-toxic

Question: What about the Activity (A549 [6]) of the same compound?
Answer: inactive

Question: What about the Activity (A549 [7]) of the same compound?
Answer: 12.89%

Question: And the inhibition [8]?
Answer: Dose-dependent effect

Question: What about the Activity (A549 [9]) of the same compound?
Answer: 43.4%

Question: And the Activity (A549 [10])?
Answer: inactive

Question: What about the Activity (Homo sapiens [11]) of the same compound?
Answer: Active

Question: What about the Activity (A549 [12]) of the same compound?
Answer: 11.31%

Question: And the Activity (A549 [13])?
Answer: 57.4%

Question: And the Activity (A549 [14])?
Answer: inactive

Question: What about the Activity (A549 [15]) of the same compound?
Answer: Dose-dependent effect

Question: And the Activity (A549 [16])?
Answer: 19.84%

Question: And the Activity (A549 [17])?
Answer: inactive

Question: And the Activity (Homo sapiens [18])?
Answer: Active

Question: What about the inhibition [19] of the same compound?
Answer: Dose-dependent effect

Question: And the Activity (Medulloblastoma cell)?
Answer: Active

Question: What about the Activity (Rhabdomyosarcoma cell) of the same compound?
Answer: Active

Question: And the Activity (Hepatocyte)?
Answer: Non-toxic

Question: What about the Activity (A549 [20]) of the same compound?
Answer: inactive

Question: And the Activity [21]?
Answer: Non-toxic

Question: And the inhibition [22]?
Answer: Active

Question: What about the Activity (A549 [23]) of the same compound?
Answer: 11.03%

Question: What about the Activity (A549 [24]) of the same compound?
Answer: inactive

Question: What about the Activity (A549 [25]) of the same compound?
Answer: 46.97%

Question: What about the inhibition (A549 [26]) of the same compound?
Answer: Active

Question: And the Activity (A549 [27])?
Answer: 22.62%

Question: What about the Activity (A549 [28]) of the same compound?
Answer: 5.403%

Question: What about the Activity (Homo sapiens [29]) of the same compound?
Answer: Active
